From the NIST ThermoML archive (doi:10.1016/j.tca.2011.06.020)

Experiment: xn = mol fraction of the nth substance listed
Settings: 101 kPa, Liquid; for speed of sound: Sing-around technique in a fixed-path interferometer; for mass density: Vibrating tube method

Cc1ccccc1N [2-methylaniline] + C1CCOCC1
Settings	mass density, 298.15 K [kg/m3]	mass density, 303.15 K [kg/m3]	mass density, 308.15 K [kg/m3]	speed of sound, 298.15 K [m/s]	speed of sound, 303.15 K [m/s]	speed of sound, 308.15 K [m/s]
x1 = 0.0732	890.691	885.73	880.749	1296.4	1274.1	1252.5
x1 = 0.1342	899.769	894.897	890.021	1318.6	1296.8	1275.8
x1 = 0.1768	905.846	900.991	896.174	1334	1312.5	1292
x1 = 0.2207	911.867	907.057	902.258	1349.8	1328.6	1308.5
x1 = 0.2721	918.66	913.86	909.112	1368.2	1347.1	1327.6
x1 = 0.3328	926.351	921.578	916.872	1389.3	1368.7	1349.5
x1 = 0.3562	929.219	924.445	919.758	1397.3	1376.9	1357.8
x1 = 0.3901	933.275	928.536	923.89	1409	1388.5	1369.8
x1 = 0.4288	937.818	933.094	928.469	1421.8	1401.6	1383.1
x1 = 0.4567	940.995	936.325	931.715	1431	1411.1	1392.3
x1 = 0.5014	945.986	941.37	936.823	1445.5	1425.7	1407.2
x1 = 0.5362	949.788	945.194	940.693	1456.6	1437	1418.2
x1 = 0.5982	956.336	951.867	947.455	1475.7	1456.5	1437.6
x1 = 0.6243	959.04	954.607	950.235	1483.6	1464.7	1445.7
x1 = 0.6644	963.103	958.737	954.427	1495.7	1477	1457.6
x1 = 0.7125	967.87	963.596	959.361	1510.2	1491.3	1471.8
x1 = 0.7703	973.454	969.292	965.131	1527.4	1508.7	1488.6
x1 = 0.8025	976.501	972.384	968.276	1537	1518.1	1497.9
x1 = 1	994.351	990.224	986.069	1602.6	1577.8	1558.4
